Patent publication US12281080B2, “Quinoline-based compounds and methods of inhibiting CDK8/19” (University of South Carolina, priority 2018, dated 2025)

Key:
[1] = molecular target: ABL1(T315I)-nonphosphorylated (Homo sapiens (Human), UniProt P00519, T315I); test: KINOMEscan scanMAX; assay type: binding; settings: 2000 nM; read-out: Percent Control
[2] = molecular target: ABL1(Y253F)-phosphorylated (Homo sapiens (Human), UniProt P00519, Y253F); test: KINOMEscan scanMAX; assay type: binding; settings: 2000 nM; read-out: Percent Control
ANKK1 = ANKK1 (Homo sapiens (Human), UniProt Q8NFD2); test: KINOMEscan scanMAX; assay type: binding; settings: 2000 nM; read-out: Percent Control
CAMK1B (PNCK) = CAMK1B (PNCK) (Homo sapiens (Human), UniProt Q6P2M8); test: KINOMEscan scanMAX; assay type: binding; settings: 2000 nM; read-out: Percent Control
CDKL5 = CDKL5 (Homo sapiens (Human), UniProt O76039); test: KINOMEscan scanMAX; assay type: binding; settings: 2000 nM; read-out: Percent Control
CHEK2 = CHEK2 (Homo sapiens (Human), UniProt O96017); test: KINOMEscan scanMAX; assay type: binding; settings: 2000 nM; read-out: Percent Control
CHEK2, sequence (O96017 whole entry): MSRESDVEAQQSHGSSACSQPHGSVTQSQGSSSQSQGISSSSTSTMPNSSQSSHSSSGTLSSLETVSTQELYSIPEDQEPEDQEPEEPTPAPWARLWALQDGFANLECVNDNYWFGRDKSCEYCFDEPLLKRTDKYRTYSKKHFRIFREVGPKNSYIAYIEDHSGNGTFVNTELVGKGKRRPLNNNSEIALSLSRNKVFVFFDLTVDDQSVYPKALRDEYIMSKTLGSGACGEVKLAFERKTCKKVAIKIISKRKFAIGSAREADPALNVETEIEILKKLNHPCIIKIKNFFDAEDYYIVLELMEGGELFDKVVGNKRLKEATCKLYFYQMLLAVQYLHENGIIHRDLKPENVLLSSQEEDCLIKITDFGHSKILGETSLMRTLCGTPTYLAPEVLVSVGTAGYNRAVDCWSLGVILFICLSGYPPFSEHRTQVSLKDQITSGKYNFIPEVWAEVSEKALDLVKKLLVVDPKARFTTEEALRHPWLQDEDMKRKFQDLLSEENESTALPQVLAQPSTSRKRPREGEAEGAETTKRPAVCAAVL

CSK = CSK (Homo sapiens (Human), UniProt P41240); test: KINOMEscan scanMAX; assay type: binding; settings: 2000 nM; read-out: Percent Control
CSNK1A1L = CSNK1A1L (Homo sapiens (Human), UniProt Q8N752); test: KINOMEscan scanMAX; assay type: binding; settings: 2000 nM; read-out: Percent Control
CSNK2A2 = CSNK2A2 (Homo sapiens (Human), UniProt P19784); test: KINOMEscan scanMAX; assay type: binding; settings: 2000 nM; read-out: Percent Control
CSNK2A2, sequence (P19784 whole entry): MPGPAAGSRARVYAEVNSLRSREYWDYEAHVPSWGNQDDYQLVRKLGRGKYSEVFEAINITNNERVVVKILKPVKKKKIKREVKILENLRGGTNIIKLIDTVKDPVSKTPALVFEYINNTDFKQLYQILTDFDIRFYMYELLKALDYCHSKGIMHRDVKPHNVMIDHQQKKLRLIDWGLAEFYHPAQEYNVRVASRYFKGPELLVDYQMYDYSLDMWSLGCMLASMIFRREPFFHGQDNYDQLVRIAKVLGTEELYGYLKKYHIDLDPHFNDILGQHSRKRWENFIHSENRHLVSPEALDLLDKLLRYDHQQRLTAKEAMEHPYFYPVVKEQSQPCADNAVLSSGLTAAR

EPHB4 = EPHB4 (Homo sapiens (Human), UniProt P54760); test: KINOMEscan scanMAX; assay type: binding; settings: 2000 nM; read-out: Percent Control
ERN1 = ERN1 (Homo sapiens (Human), UniProt O75460); test: KINOMEscan scanMAX; assay type: binding; settings: 2000 nM; read-out: Percent Control
FLT3(D835Y) = FLT3(D835Y) (Homo sapiens (Human), UniProt P36888, D835Y); test: KINOMEscan scanMAX; assay type: binding; settings: 2000 nM; read-out: Percent Control
HIPK3 = HIPK3 (Homo sapiens (Human), UniProt Q9H422); test: KINOMEscan scanMAX; assay type: binding; settings: 2000 nM; read-out: Percent Control
[3] = molecular target: JAK2(JH1domain-catalytic) (Homo sapiens (Human), UniProt O60674); test: KINOMEscan scanMAX; assay type: binding; settings: 2000 nM; read-out: Percent Control
JAK2(JH1domain-catalytic), sequence (O60674 849-1124): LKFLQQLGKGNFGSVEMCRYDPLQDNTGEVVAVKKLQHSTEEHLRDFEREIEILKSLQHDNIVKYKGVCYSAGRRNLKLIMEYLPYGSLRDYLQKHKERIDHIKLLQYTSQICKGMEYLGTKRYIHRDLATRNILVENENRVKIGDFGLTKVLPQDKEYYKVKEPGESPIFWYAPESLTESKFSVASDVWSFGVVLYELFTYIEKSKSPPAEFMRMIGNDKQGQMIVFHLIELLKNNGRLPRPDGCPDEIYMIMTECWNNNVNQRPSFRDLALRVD

JNK1 (MAPK8) = JNK1 (MAPK8) (Homo sapiens (Human), UniProt P45983); test: KINOMEscan scanMAX; assay type: binding; settings: 2000 nM; read-out: Percent Control
KIT(A829P) = KIT(A829P) (Homo sapiens (Human), UniProt P10721, A829P); test: KINOMEscan scanMAX; assay type: binding; settings: 2000 nM; read-out: Percent Control
KIT(D816H) = KIT(D816H) (Homo sapiens (Human), UniProt P10721, D816H); test: KINOMEscan scanMAX; assay type: binding; settings: 2000 nM; read-out: Percent Control
KIT(D816H), sequence (P10721 26-976 D816H): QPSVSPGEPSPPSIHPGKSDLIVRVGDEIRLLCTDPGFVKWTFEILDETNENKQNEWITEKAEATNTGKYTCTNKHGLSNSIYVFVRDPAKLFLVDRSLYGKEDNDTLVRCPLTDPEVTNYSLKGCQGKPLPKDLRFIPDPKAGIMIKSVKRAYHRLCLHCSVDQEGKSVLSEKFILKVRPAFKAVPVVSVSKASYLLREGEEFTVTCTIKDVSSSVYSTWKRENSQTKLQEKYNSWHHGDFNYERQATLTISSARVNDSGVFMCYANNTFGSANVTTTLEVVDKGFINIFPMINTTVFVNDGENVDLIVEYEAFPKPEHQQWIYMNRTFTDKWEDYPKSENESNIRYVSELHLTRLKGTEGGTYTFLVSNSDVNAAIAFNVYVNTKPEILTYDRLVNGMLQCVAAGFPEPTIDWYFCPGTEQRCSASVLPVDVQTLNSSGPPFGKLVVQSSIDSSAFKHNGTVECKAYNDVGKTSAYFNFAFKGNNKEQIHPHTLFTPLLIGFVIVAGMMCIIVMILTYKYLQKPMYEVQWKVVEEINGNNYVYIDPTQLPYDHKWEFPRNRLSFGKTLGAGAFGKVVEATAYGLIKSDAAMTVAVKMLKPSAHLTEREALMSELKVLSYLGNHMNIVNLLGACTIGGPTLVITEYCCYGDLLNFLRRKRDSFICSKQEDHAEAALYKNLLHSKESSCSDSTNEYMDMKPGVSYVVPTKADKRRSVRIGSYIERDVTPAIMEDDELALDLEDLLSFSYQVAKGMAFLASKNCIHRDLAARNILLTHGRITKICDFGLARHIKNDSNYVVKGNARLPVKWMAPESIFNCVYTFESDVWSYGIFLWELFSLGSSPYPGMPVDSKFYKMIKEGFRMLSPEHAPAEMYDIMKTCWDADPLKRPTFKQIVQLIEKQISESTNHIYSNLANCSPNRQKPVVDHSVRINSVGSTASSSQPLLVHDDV

LCK = LCK (Homo sapiens (Human), UniProt P06239); test: KINOMEscan scanMAX; assay type: binding; settings: 2000 nM; read-out: Percent Control
LTK = LTK (Homo sapiens (Human), UniProt P29376); test: KINOMEscan scanMAX; assay type: binding; settings: 2000 nM; read-out: Percent Control
MLCK (MYLK3) = MLCK (MYLK3) (Homo sapiens (Human), UniProt Q32MK0); test: KINOMEscan scanMAX; assay type: binding; settings: 2000 nM; read-out: Percent Control
MLK1 (MAP3K9) = MLK1 (MAP3K9) (Homo sapiens (Human), UniProt P80192); test: KINOMEscan scanMAX; assay type: binding; settings: 2000 nM; read-out: Percent Control
MLK1 (MAP3K9), sequence (P80192 whole entry): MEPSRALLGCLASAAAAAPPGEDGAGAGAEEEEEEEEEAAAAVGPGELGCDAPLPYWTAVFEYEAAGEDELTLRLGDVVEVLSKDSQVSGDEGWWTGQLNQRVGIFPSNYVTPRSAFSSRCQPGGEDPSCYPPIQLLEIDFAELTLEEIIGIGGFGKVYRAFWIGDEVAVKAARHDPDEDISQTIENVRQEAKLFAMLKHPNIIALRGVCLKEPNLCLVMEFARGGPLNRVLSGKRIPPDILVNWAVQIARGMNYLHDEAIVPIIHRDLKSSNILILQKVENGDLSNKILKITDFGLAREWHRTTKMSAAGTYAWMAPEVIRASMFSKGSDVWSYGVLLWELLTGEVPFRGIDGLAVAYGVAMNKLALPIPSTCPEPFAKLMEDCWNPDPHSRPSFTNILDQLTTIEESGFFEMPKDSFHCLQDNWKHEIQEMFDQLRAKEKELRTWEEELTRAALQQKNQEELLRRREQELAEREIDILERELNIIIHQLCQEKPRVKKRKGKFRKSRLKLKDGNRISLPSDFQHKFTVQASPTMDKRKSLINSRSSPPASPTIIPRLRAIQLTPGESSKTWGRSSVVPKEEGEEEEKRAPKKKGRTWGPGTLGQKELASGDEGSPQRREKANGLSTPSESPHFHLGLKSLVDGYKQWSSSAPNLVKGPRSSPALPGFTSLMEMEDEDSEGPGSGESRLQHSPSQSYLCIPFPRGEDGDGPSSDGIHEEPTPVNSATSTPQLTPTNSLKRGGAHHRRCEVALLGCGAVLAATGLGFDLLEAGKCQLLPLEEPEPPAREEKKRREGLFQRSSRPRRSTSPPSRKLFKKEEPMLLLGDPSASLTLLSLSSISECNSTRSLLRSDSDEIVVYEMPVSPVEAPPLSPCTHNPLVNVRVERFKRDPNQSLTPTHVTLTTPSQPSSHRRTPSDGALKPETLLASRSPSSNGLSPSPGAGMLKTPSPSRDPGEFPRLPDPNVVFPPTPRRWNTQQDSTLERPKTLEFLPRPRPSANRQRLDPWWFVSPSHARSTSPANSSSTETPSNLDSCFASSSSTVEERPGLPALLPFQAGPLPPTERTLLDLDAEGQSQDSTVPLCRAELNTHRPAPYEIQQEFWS

MST1 (STK4) = MST1 (STK4) (Homo sapiens (Human), UniProt Q13043); test: KINOMEscan scanMAX; assay type: binding; settings: 2000 nM; read-out: Percent Control
MTOR = MTOR (Homo sapiens (Human), UniProt P42345); test: KINOMEscan scanMAX; assay type: binding; settings: 2000 nM; read-out: Percent Control
NEK2 = NEK2 (Homo sapiens (Human), UniProt P51955); test: KINOMEscan scanMAX; assay type: binding; settings: 2000 nM; read-out: Percent Control
p38-gamma (MAPK12) = p38-gamma (MAPK12) (Homo sapiens (Human), UniProt P53778); test: KINOMEscan scanMAX; assay type: binding; settings: 2000 nM; read-out: Percent Control
p38-gamma (MAPK12), sequence (P53778 whole entry): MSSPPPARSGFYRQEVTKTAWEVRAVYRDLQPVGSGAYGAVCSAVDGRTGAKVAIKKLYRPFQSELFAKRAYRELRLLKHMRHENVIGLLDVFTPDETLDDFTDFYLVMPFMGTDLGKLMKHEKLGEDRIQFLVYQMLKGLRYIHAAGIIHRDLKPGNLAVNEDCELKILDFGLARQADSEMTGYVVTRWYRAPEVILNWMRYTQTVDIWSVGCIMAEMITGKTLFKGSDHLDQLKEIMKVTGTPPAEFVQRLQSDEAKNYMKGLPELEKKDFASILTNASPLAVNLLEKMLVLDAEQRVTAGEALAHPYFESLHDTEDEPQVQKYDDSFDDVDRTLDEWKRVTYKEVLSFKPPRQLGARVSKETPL

PIK3C2G = PIK3C2G (Homo sapiens (Human), UniProt O75747); test: KINOMEscan scanMAX; assay type: binding; settings: 2000 nM; read-out: Percent Control
PIK3CA(H1047L) = PIK3CA(H1047L) (Homo sapiens (Human), UniProt P42336, H1047L); test: KINOMEscan scanMAX; assay type: binding; settings: 2000 nM; read-out: Percent Control
PRKCD = PRKCD (Homo sapiens (Human), UniProt Q05655); test: KINOMEscan scanMAX; assay type: binding; settings: 2000 nM; read-out: Percent Control
RET = RET (Homo sapiens (Human), UniProt P07949); test: KINOMEscan scanMAX; assay type: binding; settings: 2000 nM; read-out: Percent Control
[4] = molecular target: RPS6KA5(Kin.Dom.1-N-terminal) (Homo sapiens (Human), UniProt O75582); test: KINOMEscan scanMAX; assay type: binding; settings: 2000 nM; read-out: Percent Control
[5] = molecular target: RSK2(Kin.Dom.1-N-terminal) (RPS6KA3) (Homo sapiens (Human), UniProt P51812); test: KINOMEscan scanMAX; assay type: binding; settings: 2000 nM; read-out: Percent Control
RSK2(Kin.Dom.1-N-terminal) (RPS6KA3), sequence (P51812 68-327): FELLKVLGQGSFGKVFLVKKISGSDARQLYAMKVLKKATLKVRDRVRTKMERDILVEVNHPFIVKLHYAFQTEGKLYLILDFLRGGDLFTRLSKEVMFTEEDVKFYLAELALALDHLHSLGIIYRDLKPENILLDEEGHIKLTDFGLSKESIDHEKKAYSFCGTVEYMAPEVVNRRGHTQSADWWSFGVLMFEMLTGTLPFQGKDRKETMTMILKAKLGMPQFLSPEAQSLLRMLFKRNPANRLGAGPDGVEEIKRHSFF

SNARK (NUAK2) = SNARK (NUAK2) (Homo sapiens (Human), UniProt Q9H093); test: KINOMEscan scanMAX; assay type: binding; settings: 2000 nM; read-out: Percent Control
SNARK (NUAK2), sequence (Q9H093 whole entry): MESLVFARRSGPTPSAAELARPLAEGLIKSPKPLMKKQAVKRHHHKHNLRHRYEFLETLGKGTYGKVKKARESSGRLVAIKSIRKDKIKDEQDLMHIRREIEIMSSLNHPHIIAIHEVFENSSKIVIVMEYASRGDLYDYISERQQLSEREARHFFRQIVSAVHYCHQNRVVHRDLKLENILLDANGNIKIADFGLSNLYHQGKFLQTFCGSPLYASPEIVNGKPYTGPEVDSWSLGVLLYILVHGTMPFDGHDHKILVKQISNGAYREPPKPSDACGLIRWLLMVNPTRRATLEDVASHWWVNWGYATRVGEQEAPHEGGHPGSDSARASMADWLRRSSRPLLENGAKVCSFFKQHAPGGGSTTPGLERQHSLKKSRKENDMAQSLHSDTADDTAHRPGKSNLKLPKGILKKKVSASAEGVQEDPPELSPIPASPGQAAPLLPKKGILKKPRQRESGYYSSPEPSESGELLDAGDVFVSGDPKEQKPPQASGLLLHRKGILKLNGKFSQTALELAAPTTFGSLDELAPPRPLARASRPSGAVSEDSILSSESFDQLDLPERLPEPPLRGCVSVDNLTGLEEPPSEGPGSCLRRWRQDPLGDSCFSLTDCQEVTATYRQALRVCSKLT

STK39 = STK39 (Homo sapiens (Human), UniProt Q9UEW8); test: KINOMEscan scanMAX; assay type: binding; settings: 2000 nM; read-out: Percent Control
TIE1 = TIE1 (Homo sapiens (Human), UniProt P35590); test: KINOMEscan scanMAX; assay type: binding; settings: 2000 nM; read-out: Percent Control
TRKC (NTRK3) = TRKC (NTRK3) (Homo sapiens (Human), UniProt Q16288); test: KINOMEscan scanMAX; assay type: binding; settings: 2000 nM; read-out: Percent Control
ULK3 = ULK3 (Homo sapiens (Human), UniProt Q6PHR2); test: KINOMEscan scanMAX; assay type: binding; settings: 2000 nM; read-out: Percent Control
YES (YES1) = YES (YES1) (Homo sapiens (Human), UniProt P07947); test: KINOMEscan scanMAX; assay type: binding; settings: 2000 nM; read-out: Percent Control
YES (YES1), sequence (P07947 whole entry): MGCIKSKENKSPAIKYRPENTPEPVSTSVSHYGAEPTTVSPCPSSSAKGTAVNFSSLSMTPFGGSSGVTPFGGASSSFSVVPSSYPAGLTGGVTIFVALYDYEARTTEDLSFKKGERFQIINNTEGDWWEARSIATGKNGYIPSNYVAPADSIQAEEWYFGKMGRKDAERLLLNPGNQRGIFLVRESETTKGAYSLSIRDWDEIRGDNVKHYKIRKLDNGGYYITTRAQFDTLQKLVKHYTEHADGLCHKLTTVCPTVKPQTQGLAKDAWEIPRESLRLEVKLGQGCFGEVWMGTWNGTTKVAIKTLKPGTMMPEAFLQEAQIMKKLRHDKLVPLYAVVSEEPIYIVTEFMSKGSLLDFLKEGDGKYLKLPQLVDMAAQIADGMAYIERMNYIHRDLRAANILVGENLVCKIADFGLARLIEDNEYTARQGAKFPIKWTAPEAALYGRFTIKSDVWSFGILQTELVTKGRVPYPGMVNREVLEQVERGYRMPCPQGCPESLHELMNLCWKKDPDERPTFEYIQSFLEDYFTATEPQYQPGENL

[6] = tested on: NFκB-dependent promoter in CDK8/19 deficient (double-knockout) reporter cells; test: NFκB-dependent luciferase reporter assay, CDK8/19 double-knockout vs wild-type 293 cells; settings: double-knockout vs parental reporter cells
Text: The second cell-based assay measures the effects of CDK8/19 on the expression of firefly luciferase reporter from a NFκB-dependent promoter in 293 cells.

CN1CCN(C(=O)c2ccc3cc(CCNc4ccnc5ccc(C#N)cc45)ccc3c2)CC1 [compound 6148, 4-((2-(6-(4-methylpiperazine-1-carbonyl)naphthalen-2-yl)ethyl)amino)quinoline-6-carbonitrile]
remaining binding at 2 µM [1]: 90% | remaining binding at 2 µM [2]: 74% | remaining binding at 2 µM (ANKK1): 69% | remaining binding at 2 µM (CAMK1B (PNCK)): 92% | remaining binding at 2 µM (CDKL5): 70% | remaining binding at 2 µM (CHEK2): 98% | remaining binding at 2 µM (CSK): 85% | remaining binding at 2 µM (CSNK1A1L): 88% | remaining binding at 2 µM (CSNK2A2): 64% | remaining binding at 2 µM (EPHB4): 89% | remaining binding at 2 µM (ERN1): 58% | remaining binding at 2 µM (FLT3(D835Y)): 73% | remaining binding at 2 µM (HIPK3): 52% | remaining binding at 2 µM [3]: 56% | remaining binding at 2 µM (JNK1 (MAPK8)): 54% | remaining binding at 2 µM (KIT(A829P)): 82% | remaining binding at 2 µM (KIT(D816H)): 57% | remaining binding at 2 µM (LCK): 92% | remaining binding at 2 µM (LTK): 93% | remaining binding at 2 µM (MLCK (MYLK3)): 100% | remaining binding at 2 µM (MLK1 (MAP3K9)): 87% | remaining binding at 2 µM (MST1 (STK4)): 95% | remaining binding at 2 µM (MTOR): 79% | remaining binding at 2 µM (NEK2): 100% | remaining binding at 2 µM (p38-gamma (MAPK12)): 100% | remaining binding at 2 µM (PIK3C2G): 57% | remaining binding at 2 µM (PIK3CA(H1047L)): 84% | remaining binding at 2 µM (PRKCD): 83% | remaining binding at 2 µM (RET): 100% | remaining binding at 2 µM [4]: 86% | remaining binding at 2 µM [5]: 62% | remaining binding at 2 µM (SNARK (NUAK2)): 75% | remaining binding at 2 µM (STK39): 44% | remaining binding at 2 µM (TIE1): 85% | remaining binding at 2 µM (TRKC (NTRK3)): 69% | remaining binding at 2 µM (ULK3): 70% | remaining binding at 2 µM (YES (YES1)): 100% | IC50 in CDK8/19-deficient cells relative to wild-type cells [6]: > 50 times
